From paper PMC8851638 (ACS Omega, 2022)
In brackets after ≈: the same amount, converted by molar mass. Several values for one entry are separate records, joined by “and”; a condition that tells them apart may be missing. Equal entries are not always repeated.

How the values were obtained:
S. aureus (MDR00231) [1] = test: Agar well-diffusion antimicrobial sensitivity assay; assay type: cell-based, Staphylococcus aureus; conditions: Staphylococcus aureus, read-out: Inhibition Zone (IZ)
[2] = system: S. epidermidis (MDR00223); test: as above; assay type: cell-based, Staphylococcus epidermidis; conditions: Staphylococcus epidermidis, read-out: Inhibition Zone (IZ)
E. coli (MDR00501) [3] = test: as above; assay type: cell-based; conditions: Escherichia coli, read-out: Inhibition Zone (IZ)
[4] = system: C. albicans200 (MDR00200); test: as above; assay type: cell-based, Candida albicans; conditions: Candida albicans, read-out: Inhibition Zone (IZ)
[5] = system: C. albicans100 (MDR00100); test: as above; assay type: cell-based, Candida albicans; conditions: Candida albicans, read-out: Inhibition Zone (IZ)
RBCs = test: Hemolytic assay; assay type: cell-based; conditions: human RBCs; compounds 1.0 mg/mL; Triton X-100 0.1% v/v; 37 °C, 35 min
E. coli (MDR00501) [6] = test: MIC and MBC by broth microdilution; assay type: cell-based; conditions: Escherichia coli, read-out: MIC (mean ± SEM), E. coli; broth microdilution
B. subtilis (MDR00423) = test: MIC and MBC by broth microdilution; assay type: cell-based; conditions: Bacillus subtilis, read-out: MIC (mean ± SEM), B. subtilis; broth microdilution
[7] = system: S. epidermidis (MDR00223); test: MIC and MBC by broth microdilution; assay type: cell-based, Staphylococcus epidermidis; conditions: Staphylococcus epidermidis, read-out: MIC (mean ± SEM), S. epidermidis; broth microdilution
S. aureus (MDR00231) [8] = test: MIC and MBC by broth microdilution; assay type: cell-based, Staphylococcus aureus; conditions: Staphylococcus aureus, read-out: MIC (mean ± SEM), S. aureus; broth microdilution
S. epidermidis biofilm = test: Staphylococcus biofilm mass reduction; assay type: cell-based; conditions: at their MIC
S. aureus biofilm = test: Staphylococcus biofilm mass reduction; assay type: cell-based; conditions: at their MIC

| Molecule | zone of inhibition at 100000 µg/mL (S. aureus (MDR00231) [1]) [mm] | zone of inhibition at 100000 µg/mL [2] [mm] | zone of inhibition at 100000 µg/mL (E. coli (MDR00501) [3]) [mm] | zone of inhibition at 100000 µg/mL [4] [mm] | zone of inhibition at 100000 µg/mL [5] [mm] | %lysis of RBCs (RBCs) | MIC (E. coli (MDR00501) [6]) [µg/mL] | MIC (B. subtilis (MDR00423)) [µg/mL] | MIC [7] [µg/mL] | MIC (S. aureus (MDR00231) [8]) [µg/mL] | reduction of biofilm formation (S. epidermidis biofilm) [%] | reduction of biofilm formation (S. aureus biofilm) [%] |
| --- | --- | --- | --- | --- | --- | --- | --- | --- | --- | --- | --- | --- |
| Cc1c(NN=C2SC(CC#N)=NC2=O)c(=O)n(-c2ccccc2)n1C [Compound 14, 2-(5-(2-(1,5-Dimethyl-3-oxo-2-phenyl-2,3-dihydro-1H-pyrazol-4-yl)hydrazono)-4-oxo-4,5-dihydrothiazol-2-yl)acetonitrile] | 16 ± 0.21 | 19 ± 0.23 | 17 ± 0.35 | 20 ± 0.88 | 18 ± 0.66 | – | – | – | – | – | – | – |
| N#CC(=Cc1ccc(Cl)cc1)C1=NC(=O)C(=Cc2cn(-c3ccccc3)nc2-c2ccccc2)S1 [Compound 5b, 3-(4-Chlorophenyl)-2-(5-((1,3-diphenyl-1H-pyrazol-4-yl)methylene)-4-oxo-4,5-dihydrothiazol-2-yl)acrylonitrile] | 24 ± 0.2 | 21 ± 0.1 | 22 ± 0.56 | 25 ± 0.77 | 23 ± 0.26 | – | – | – | – | – | – | – |
| CCOC(=O)C=c1[nH]c(=O)c(=Cc2cn(-c3ccccc3)nc2-c2ccccc2)s1 [Compound 3c, Ethyl 2-(5-((1,3-Diphenyl-1H-pyrazol-4-yl)methylene)-4-oxothiazolidin-2-ylidene)acetate] | 13 ± 0.46 | 15 ± 0.7 | 18 ± 0.33 | 14 ± 0.3 | 15 ± 0.45 | – | – | – | – | – | – | – |
| Triton X-100 [reference compound] | – | – | – | – | – | 95.12% and 95.12 ± 0.721% | – | – | – | – | – | – |
| N#CC(=Cc1ccc([N+](=O)[O-])cc1)C1=NC(=O)C(=Cc2cn(-c3ccccc3)nc2-c2ccccc2)S1 [Compound 5c, 2-(5-((1,3-Diphenyl-1H-pyrazol-4-yl)methylene)-4-oxo-4,5-dihydrothiazol-2-yl)-3-(4-nitrophenyl)acrylonitrile] | 22 ± 0.66 | 24 ± 0.28 | 21 ± 0.45 | 24 ± 0.13 | 21 ± 0.52 | – | – | – | – | – | – | – |
| CCOC(=O)c1c(N)csc1-c1cn(-c2ccccc2)nc1-c1ccccc1 [Compound 7a, Ethyl 4-Amino-2-(1,3-diphenyl-1H-pyrazol-4-yl)thiophene-3-carboxylate] | 24 ± 0.4 | 21 ± 0.12 | 22 ± 0.41 | 25 ± 0.33 | 21 ± 0.32 | – | – | – | – | – | – | – |
| Cc1c(NN=C2SC(C(C#N)=Cc3ccccc3)=NC2=O)c(=O)n(-c2ccccc2)n1C [Compound 15a, 2-(5-(2-(1,5-Dimethyl-3-oxo-2-phenyl-2,3-dihydro-1H-pyrazol-4-yl)hydrazono)-4-oxo-4,5-dihydrothiazol-2-yl)-3-phenylacrylonitrile] | 16 ± 0.59 | 18 ± 0.56 | 15 ± 0.77 | 20 ± 0.58 | 16 ± 0.44 | – | – | – | – | – | – | – |
| Cc1ccc(-c2nn(-c3ccccc3)cc2C=c2sc(=CC#N)[nH]c2=O)cc1 [Compound 3b, 2-(4-Oxo-5-((1-phenyl-3-(p-tolyl)-1H-pyrazol-4-yl)methylene)thiazolidin-2-ylidene)acetonitrile] | 15 ± 0.63 | 17 ± 0.21 | 16 ± 0.34 | 15 ± 0.8 | 13 ± 0.22 | – | – | – | – | – | – | – |
| Cc1c(NN=C2SC(C(C#N)=Cc3ccc(Cl)cc3)=NC2=O)c(=O)n(-c2ccccc2)n1C [Compound 15b, 3-(4-Chlorophenyl)-2-(5-(2-(1,5-dimethyl-3-oxo-2-phenyl-2,3-dihydro-1H-pyrazol-4-yl)hydrazono)-4-oxo-4,5-dihydrothiazol-2-yl)acrylonitrile] | 18 ± 0.44 | 16 ± 0.25 | 16 ± 0.85 | 18 ± 0.76 | 16 ± 0.34 | – | – | – | – | – | – | – |
| Cc1ccc(-c2nn(-c3ccccc3)cc2C=C(C#N)C2=NC(=O)CS2)cc1 [Compound 4b, 2-(4-Oxo-4,5-dihydrothiazol-2-yl)-3-(1-phenyl-3-(p-tolyl)-1H-pyrazol-4-yl)acrylonitrile] | 20 ± 0.2 | 19 ± 0.31 | 22 ± 0.6 | 23 ± 0.22 | 22 ± 0.1 | – | – | – | – | – | – | – |
| CCOC(=O)C=c1[nH]c(=O)c(=Cc2cn(-c3ccccc3)nc2-c2ccc(C)cc2)s1 [Compound 3d, Ethyl-2-(4-oxo-5-((1-phenyl-3-(p-tolyl)-1H-pyrazol-4-yl)methylene)thiazolidin-2-ylidene)-acetate] | 15 ± 0.78 | 16 ± 0.1 | 15 ± 0.67 | 16 ± 0.22 | 13 ± 0.6 | – | – | – | – | – | – | – |
| O=C(O)c1cn(C2CC2)c2cc(N3CCNCC3)c(F)cc2c1=O [CIP, Ciprofloxacin, reference compound] | – | – | – | – | – | 16.2% and 16.2 ± 0.5% | 0.46 ± 0.4 (≈ 1.39 µM) | 0.48 ± 0.3 (≈ 1.45 µM) | 0.47 ± 0.2 (≈ 1.42 µM) | 0.48 ± 0.1 (≈ 1.45 µM) | 38 | 43.2 |
